Assay results from patent publication US20240398893A1, “ANTI-CORONAVIRUS POLYPEPTIDE AS WELL AS DERIVATIVE AND APPLICATION THEREOF” (priority 2021, published 2024).

How the values were obtained:
[1] = system: pseudovirus of the SARS-COV-2 prototype
[2] = during purification process of solid-phase synthesis

| Molecule | EC50 [1] [nM] | stability [2] |
| --- | --- | --- |
| CC[C@H](C)[C@H](NC(=O)CNC(=O)[C@H](CO)NC(=O)[C@@H](NC(=O)[C@H](CC(=O)O)NC(=O)CNC(=O)[C@H](Cc1ccccc1)NC(=O)[C@H](CCCCN)NC(=O)[C@@H](N)C(C)C)[C@@H](C)CC)C(=O)N[C@@H](CC(N)=O)C(=O)N[C@@H](C)C(=O)N[C@@H](CO)C(=O)N[C@H](C(=O)N[C@H](C(=O)N[C@@H](CC(N)=O)C(=O)N[C@H](C(=O)N[C@@H](CCCCN)C(=O)N[C@@H](CCC(=O)O)C(=O)N[C@@H](CCC(=O)O)C(=O)N[C@H](C(=O)N[C@@H](CC(=O)O)C(=O)N[C@@H](CCCNC(=N)N)C(=O)N[C@@H](CC(C)C)C(=O)N[C@@H](Cc1ccc(O)cc1)C(=O)N[C@@H](CCC(=O)O)C(=O)N[C@H](C(=O)N[C@H](C(=O)N[C@@H](CCCCN)C(=O)N[C@@H](CC(N)=O)C(=O)N[C@@H](CC(C)C)C(=O)N[C@@H](CC(N)=O)C(=O)N[C@@H](CCC(=O)O)C(=O)N[C@@H](CO)C(=O)N[C@@H](CC(C)C)C(=O)N[C@H](C(=O)N[C@@H](CC(=O)O)C(=O)N[C@@H](CC(C)C)C(=O)N[C@@H](CCC(N)=O)C(=O)N[C@@H](CCC(=O)O)C(=O)N[C@@H](CC(C)C)C(=O)O)[C@@H](C)CC)C(C)C)C(C)C)[C@@H](C)CC)[C@@H](C)CC)C(C)C)C(C)C [P3-3] | 501 | – |
| DLGDISGINASVVNIQKEIDRLNEVAKNLNESLIDLQELGSGSGC(CH2CONH(PEG)4CH2COOChol)-NH2 [P3-2-GS-PEG-Chol-1] | – | poor stability |
| DLGDISGINASVVNIQKEIDRLNEVAKNLNESLIDLQELGSGSGC(CH2COOChol)-NH2 [P3-2-GS-Chol-1] | – | poor stability |
